According to patent US11814382B2 (FUJIAN COSUNTER PHARMACEUTICAL CO., LTD., priority 2018, dated 2023):

How the values were obtained:
[1] = Solid stability test of crystal form A (high temperature, high humidity, strong light); type: physicochemical
Text: The samples were respectively placed in a high-temperature, high-humidity and strong-light storage container. The samples were taken at 5 and 10 days after placing, and the test results were compared with the initial test results at 0 days.

[2] = system: MCD-induced mouse NASH model; experiment: In vivo efficacy test in MCD-induced mouse NASH model; set-up: species or system C57BL/6 male mice; settings: dosing from week 5 of 8 weeks MCD feed, vs. model group (FIG. 13)
Procedure: SPF grade C57BL/6 male mice, 22-25 grams in weight.
MCD: methionine/choline deficient feed.
Liver Propylene Analytical Reagents: hematoxylin dyeing liquid, eosin dyeing liquid and Picro sirius dyeing liquid.
After the animals were adapted for one week in the facility, the normal control group was still fed with the normal feed, and other animals were fed with MCD feed instead. The drinking water didn't change and the feed was replaced once every 48 hours. Beginning at week 5, the remaining groups, except the normal control and model groups, were administrated with subject compound. The Experiment lasted for a total of 8 weeks. At the end of the experiment, animal liver samples were collected for histopathological analysis.

[3] = system: CCl4-induced mouse liver fibrosis model; experiment: In vivo efficacy test in CCl4-induced mouse liver fibrosis model; set-up: species or system Male C57BL/6 mice; settings: oral gavage, day 1 to day 28 of CCl4 modeling, vs. model group (FIG. 14)
Procedure: Male C57BL/6 mice, 22-27 grams in weight, purchased from Shanghai Lingchang Biotechnology Co., Ltd.
Mice were transferred to the experimental area after one week of quarantine and adaptation. Animals were randomly divided into groups according to body weight and housed in cages at 5 mice per cage. 20% CCl4 solution with CCl4: Olive oil=1:4 was prepared by dissolving CCl4 in olive oil at a dose of 0.5 μl/g in mice. The mice of model group were orally three times a week for 4 weeks for molding, and the mice of normal control group was administrated only with the same volume of olive oil orally. The subject compounds were administered orally by oral gavage in a volume of 10 ml/kg per animal. The Day 1 of CCl4 modeling was initiated while dosing was initiated until day 28. At the end of the experiment, animal liver samples were collected for histopathological analysis.

Cc1cc(F)c(C(=O)Nc2cccc(-c3nnc4n3CCCC4)n2)cc1-n1cnc(C2CC2)c1 [Crystal form A]
Crystal form ([1]; High Humidity (25° C./Relative Humidity 90%, Open), Day 5): Crystal form A | Crystal form ([1]; High Humidity (25° C./Relative Humidity 90%, Open), Day 10): Crystal form A | Crystal form ([1]; High Temperature (60° C., Open), Day 5): Crystal form A | Crystal form ([1]; High Temperature (60° C., Open), Day 10): Crystal form A | Crystal form ([1]; Strong light (5000 lx, closed), Day 5): Crystal form A | Crystal form ([1]; Strong light (5000 lx, closed), Day 10): Crystal form A | Solid stability (conclusion) ([1]; high temperature, high humidity and strong light): good stability | Crystal form ([1]; initial, Day 0): Crystal form A | Effect on liver fibrosis (liver histopathology) ([2]; 6 mg/Kg BID): significant effect on improving liver fibrosis | Effect on liver fibrosis (liver histopathology) ([2]; 60 mg/Kg BID): significant effect on improving liver fibrosis | Effect on liver fibrosis (liver histopathology) ([3]; 3 mg/Kg BID): significant effect on improving liver fibrosis | Effect on liver fibrosis (liver histopathology) ([3]; 30 mg/Kg BID): significant effect on improving liver fibrosis
